Reference: US20130065818A1, “Arylamide Compounds And Compositions And Uses Thereof” (POLYMEDIX, priority 2006, published 2013)
Several values for one entry are separate records, joined by “and”; a condition that tells them apart may be missing. Equal values may be shown once. Values belong to the compound of their own block, whether it stands above or below them.

How the values were obtained:
[1] = test system: Ciprofloxacin Susceptible (CS) S. aureus (CSSA); assay: MIC of clinical ocular isolates (Example 1); format: cell-based; conditions: Staphylococcus aureus; CSSA clinical ocular isolates (n=27)
[2] = test system: Ciprofloxacin Resistant (CR) S. aureus (CRSA); assay: MIC of clinical ocular isolates (Example 1); format: cell-based; conditions: Staphylococcus aureus; CRSA clinical ocular isolates (n=28)
CS S. epidermidis (CSSE) = assay: MIC of clinical ocular isolates (Example 1); format: cell-based; conditions: Staphylococcus epidermidis; CSSE clinical ocular isolates (n=26)
CR S. epidermidis (CRSE) = assay: MIC of clinical ocular isolates (Example 1); format: cell-based; conditions: Staphylococcus epidermidis; CRSE clinical ocular isolates (n=26)
St. pneumoniae (SP) = assay: MIC of clinical ocular isolates (Example 1); format: cell-based; conditions: Streptococcus pneumoniae; SP clinical ocular isolates (n=27)
St. viridans group (SV) = assay: MIC of clinical ocular isolates (Example 1); format: cell-based; conditions: Streptococcus viridans
Moraxella Species (MS) = assay: MIC of clinical ocular isolates (Example 1); format: cell-based; conditions: MS clinical ocular isolates (n=25)
H. influenzae (HI) = assay: MIC of clinical ocular isolates (Example 1); format: cell-based; conditions: Haemophilus influenzae; HI clinical ocular isolates (n=26)
P. aeruginosa (PA) = assay: MIC of clinical ocular isolates (Example 1); format: cell-based; conditions: Pseudomonas aeruginosa; PA clinical ocular isolates (n=26)
Serratia marcescens (SM) = assay: MIC of clinical ocular isolates (Example 1); format: cell-based; conditions: SM clinical ocular isolates (n=27)
[3] = test system: fluoroquinolone-resistant, methicillin-resistant Staphylococcus aureus (K950); assay: NZW rabbit keratitis model, corneal colony counts; format: in vivo; conditions: for Corneal colony count, Mean / Corneal colony count, Median / Corneal colony count, TrMean: N=3; for Corneal colony count, log / Corneal colony count: individual corneas; for Corneal colony count: Inoculum = 1048 cfu/cornea, 1 hour after final drop; for Log10 CFU/ml, group comparison (Duncan Multiple Comparisons Test): P = 0.05, < = significantly fewer colony counts
From the text: (§1) One purpose of the following experiments was to compare the efficacy of 1% Oligomer 2, 0.5% Oligomer 2, and 5% vancomycin in the treatment of a fluoroquinolone-resistant, methicillin-resistant Staphylococcus aureus infection in the NZW rabbit keratitis model with or without intact corneal epithelia.
Nothing was done to the right eyes.
as §1, with “0.25%” for “1%”, “with and without 0.005% benzalkonium chloride,” for “0.5% Oligomer 2,”, “epithelia. The 0.005% benzalkonium chloride has been added to try to increase the penetration of 0.25% Oligomer 2 through the corneal epithelium.” for “epithelia.”
One purpose of the following experiments was to determine the efficacy of 0.25% Oligomer 4, with and without 200 μM Farnesol, and 200 μM Farnesol in the treatment of a fluoroquinolone-resistant and methicillin-resistant Staphylococcus aureus infection in the NZW rabbit keratitis model with or without intact corneal epithelia. The 200 μM Farnesol has been added to try to increase the efficacy and penetration of 0.25% Oligomer 4 through the corneal epithelium.

[4] = NZW rabbit keratitis model, clinical evaluation (Total Ocular Score); conditions: for Chemosis score / Conj. score / Corneal Edema score / Corneal Infiltrate score / Discharge score / Iritis score / Total Score: individual eyes, Ker-1, drops every 15 min, 19 doses; for Chemosis score / Conj. score / Corneal Edema score / Corneal Infiltrate score / Discharge score / Iritis score: scale 0 = Normal to 3.0 = Severe; for Total Score: sum of six signs; for Total Ocular Score, Mean / Total Ocular Score, Median / Total Ocular Score, TrMean: N=3
Protocol: Fifteen rabbits were received from Myrtles' Rabbitry, Thompson Station, TN. The clinical isolate of fluoroquinolone-resistant, methicillin-resistant (MRSA) Staphylococcus aureus (K950) was subcultured on 5% sheep blood agar and incubated at 37° C. in 6% CO2 overnight. The next morning, the MRSA strain was suspended in sterile trypticase soy broth to a 0.5 McFarland Standard, containing approximately 5×10^8 cfu/ml of bacteria. The absorbance of the suspension was measured at 650 nm using a Beckman DU-70 spectrophotometer. OD readings of 0.07 corresponded to 5×10^8 cfu/ml of bacteria. This concentration was appropriately diluted in sterile trypticase soy broth to provide the inoculum of approximately 1,000 (1.0×10^3) cfu/eye in 25 μl. Colony counts were performed on the inoculum to determine the actual cfu inoculated. Following general anesthesia with ketamine and xylazine and topical anesthesia with proparacaine and prior to bacterial inoculation in the left eyes, 6 mm areas of the corneal epithelia was removed centrally with an Amoils epithelial scrubber. Nothing was done to the right eyes. The 15 rabbits were then inoculated intrastromally in both eyes with 25 μl of the bacterial dilution of approximately 10^3 cfu/eye of the bacteria. The bacterial inoculation of the left eyes was directly under the epithelial defect created by the Amoils epithelial scrubber. The epithelia were removed in the left corneas in order to determine whether this layer of the cornea is a barrier for Oligomer 2 penetration when compared to the right cornea with an intact epithelium. A colony count was done on the inoculum to determine the actual cfu inoculated. The rabbits were immediately treated with analgesia in the form of and intramuscular injection of ketoprofen, 1.5 mg/kg. After 4 hours, the 15 rabbits were divided into 4 treatment groups and one untreated control group sacrificed at the onset of therapy. Both eyes of each rabbit of the treatment groups were treated with one 37 μl drop of the coded solutions or control Saline or 1 drop of vancomycin from its dropper bottle. The Oligomer 2 concentrations were masked and labeled as 1 and 2. The masked concentrations were 1% Oligomer 2 and 0.5% Oligomer 2 but the specific concentrations of solutions were not known to the lab workers who carried out the experiment. The vancomycin and control (Tris-Buffered Saline) were not masked.
Treatment was scheduled for every 15 minutes for 5 hours (21 total doses). However, PMX-1 and PMX-2 were exhausted after the 19th dose. Therefore, the actual treatment was 15 minutes for 4.5 hours (19 total doses). The 3 rabbits in group V were sacrificed 4 hours PI and large 9.5 mm buttons were removed from the corneas. These were placed in 1 ml of PBS and kept on ice. The corneal buttons were homogenized for 25 seconds on ice using the motorized homogenizer. After homogenization, colony counts were done on the homogenates using 5% sheep blood agar plates to determine the amount of bacteria contained in the corneas at the onset of therapy. Following the completion of therapy, the eyes were examined for clinical signs of infection. One hour after the final treatment, the treated rabbits (Groups I-IV) were sacrificed and large 9.5 mm buttons were removed from the corneas. These were placed in 1 ml of PBS and kept on ice. The corneal buttons were homogenized for 25 seconds on ice using the motorized homogenizer. After homogenization, colony counts were performed on the homogenates using 5% sheep blood agar plates to determine the amount of bacteria contained in the corneas after treatment. The next morning, the plates were counted and the number of cfu/eye of Staphylococcus aureus was determined for each cornea.
Fifteen rabbits were received from Myrtles' Rabbitry, Thompson Station, TN.

- MIC50 [1]: 0.125 µg/mL
- MIC90 [1]: 0.25 µg/mL
- MIC50 [2]: 0.25 µg/mL
- MIC90 [2]: 0.25 µg/mL
- MIC50 (CS S. epidermidis (CSSE)): 0.03 µg/mL
- MIC90 (CS S. epidermidis (CSSE)): 0.125 µg/mL
- MIC50 (CR S. epidermidis (CRSE)): 0.03 µg/mL
- MIC90 (CR S. epidermidis (CRSE)): 0.03 µg/mL
- MIC50 (St. pneumoniae (SP)): 0.5 µg/mL
- MIC90 (St. pneumoniae (SP)): 1 µg/mL
- MIC50 (St. viridans group (SV)): 4 µg/mL
- MIC90 (St. viridans group (SV)): 16 µg/mL
- MIC50 (Moraxella Species (MS)): 0.5 µg/mL
- MIC90 (Moraxella Species (MS)): 0.5 µg/mL
- MIC50 (H. influenzae (HI)): 16 µg/mL
- MIC90 (H. influenzae (HI)): 32 µg/mL
- MIC50 (P. aeruginosa (PA)): 4 µg/mL
- MIC90 (P. aeruginosa (PA)): 8 µg/mL
- MIC50 (Serratia marcescens (SM)): 16 µg/mL
- MIC90 (Serratia marcescens (SM)): 64 µg/mL
SMILES: CC(C)(C)c1cc(NC(=O)CCCCNC(=N)N)c(SCCNC(=N)N)c(NC(=O)c2cc(C(=O)Nc3cc(C(C)(C)C)cc(NC(=O)CCCCNC(=N)N)c3SCCNC(=N)N)ncn2)c1 [Oligomer 1]

SMILES: CN[C@H](CC(C)C)C(=O)N[C@H]1C(=O)N[C@@H](CC(N)=O)C(=O)N[C@H]2C(=O)N[C@H]3C(=O)N[C@H](C(=O)N[C@H](C(=O)O)c4cc(O)cc(O)c4-c4cc3ccc4O)[C@H](O)c3ccc(c(Cl)c3)Oc3cc2cc(c3O[C@@H]2O[C@H](CO)[C@@H](O)[C@H](O)[C@H]2O[C@H]2C[C@](C)(N)[C@H](O)[C@H](C)O2)Oc2ccc(cc2Cl)[C@H]1O [VAN]
- Corneal colony count, Mean ([3]; Abraded Epithelium): 2.674 Log10 CFU/ml
- Corneal colony count, Median ([3]; Abraded Epithelium): 2.845 Log10 CFU/ml
- Corneal colony count, TrMean ([3]; Abraded Epithelium): 2.674 Log10 CFU/ml
- Corneal colony count, log ([3]; Abraded Epithelium): 2.301 Log10 CFU/ml and 2.845 Log10 CFU/ml and 2.875 Log10 CFU/ml
- Corneal colony count ([3]; Abraded Epithelium): 200 CFU/ml and 700 CFU/ml and 750 CFU/ml
- Log10 CFU/ml, group comparison (Duncan Multiple Comparisons Test) ([3]; Abraded Epithelium): PMX-2 = VAN = PMX-1 < ONSET = CON
- Corneal colony count, Mean ([3]; Intact Epithelium): 2.7239 Log10 CFU/ml
- Corneal colony count, Median ([3]; Intact Epithelium): 2.7404 Log10 CFU/ml
- Corneal colony count, TrMean ([3]; Intact Epithelium): 2.7239 Log10 CFU/ml
- Corneal colony count, log ([3]; Intact Epithelium): 2.74 Log10 CFU/ml and 2.653 Log10 CFU/ml and 2.778 Log10 CFU/ml
- Corneal colony count ([3]; Intact Epithelium): 550 CFU/ml and 450 CFU/ml and 600 CFU/ml
- Log10 CFU/ml, group comparison (Duncan Multiple Comparisons Test) ([3]; Intact Epithelium): VAN < PMX-1 = PMX-2 = ONSET = CON
- Chemosis score ([4]; Abraded Epithelium (AE)): 3.0 and 2.5 (2×)
- Conj. score ([4]; Abraded Epithelium (AE)): 3.0 and 2.5 (2×)
- Corneal Edema score ([4]; Abraded Epithelium (AE)): 0.5 and 1.0 (2×)
- Corneal Infiltrate score ([4]; Abraded Epithelium (AE)): 0.5 and 0 (2×)
- Discharge score ([4]; Abraded Epithelium (AE)): 3.0 and 2.0 and 2.5
- Iritis score ([4]; Abraded Epithelium (AE)): 1.0 and 1.5 (2×)
- Total Score ([4]; Abraded Epithelium (AE)): 11.0 and 9.5 and 10.0
- Total Ocular Score, Mean ([4]; Abraded Epithelium): 10.167
- Total Ocular Score, Median ([4]; Abraded Epithelium): 10.000
- Total Ocular Score, TrMean ([4]; Abraded Epithelium): 10.167
- Total Ocular Score, group comparison (Duncan Multiple Comparisons Test) ([4]; IE and AE groups, P = 0.05): CON IE = CON AE < VAN AE = PMX-1AE = PMX-2AE = VAN IE < PMX-1 IE = PMX-2 IE
- Chemosis score ([4]; Intact Epithelium (IE)): 3.0
- Conj. score ([4]; Intact Epithelium (IE)): 2.5 and 3.0 (2×)
- Corneal Edema score ([4]; Intact Epithelium (IE)): 1.0
- Corneal Infiltrate score ([4]; Intact Epithelium (IE)): 0 (2×) and 0.5
- Discharge score ([4]; Intact Epithelium (IE)): 3.0 (2×) and 2.5
- Iritis score ([4]; Intact Epithelium (IE)): 2.0 (2×) and 1.0
- Total Score ([4]; Intact Epithelium (IE)): 11.5 and 12.0 and 11.0
- Total Ocular Score, Mean ([4]; Intact Epithelium): 11.500
- Total Ocular Score, Median ([4]; Intact Epithelium): 11.500
- Total Ocular Score, TrMean ([4]; Intact Epithelium): 11.500
